Data on 21 compounds can be found in patent US8450313B2, “2,3-diaryl- or heteroaryl-substituted 1,1,1-trifluoro-2-hydroxypropyl compounds” (Hoffmann-La Roche Inc., priority 2009, dated 2013).

The target of the experiment is T1, full length human recombinant glucocorticoid receptor (Homo sapiens, UniProt P04150).
T1 construct: It contains some partially purified full length human recombinant glucocorticoid receptor; purchased Panvera/Invitrogen PV4302
T1 sequence (P04150 1-777): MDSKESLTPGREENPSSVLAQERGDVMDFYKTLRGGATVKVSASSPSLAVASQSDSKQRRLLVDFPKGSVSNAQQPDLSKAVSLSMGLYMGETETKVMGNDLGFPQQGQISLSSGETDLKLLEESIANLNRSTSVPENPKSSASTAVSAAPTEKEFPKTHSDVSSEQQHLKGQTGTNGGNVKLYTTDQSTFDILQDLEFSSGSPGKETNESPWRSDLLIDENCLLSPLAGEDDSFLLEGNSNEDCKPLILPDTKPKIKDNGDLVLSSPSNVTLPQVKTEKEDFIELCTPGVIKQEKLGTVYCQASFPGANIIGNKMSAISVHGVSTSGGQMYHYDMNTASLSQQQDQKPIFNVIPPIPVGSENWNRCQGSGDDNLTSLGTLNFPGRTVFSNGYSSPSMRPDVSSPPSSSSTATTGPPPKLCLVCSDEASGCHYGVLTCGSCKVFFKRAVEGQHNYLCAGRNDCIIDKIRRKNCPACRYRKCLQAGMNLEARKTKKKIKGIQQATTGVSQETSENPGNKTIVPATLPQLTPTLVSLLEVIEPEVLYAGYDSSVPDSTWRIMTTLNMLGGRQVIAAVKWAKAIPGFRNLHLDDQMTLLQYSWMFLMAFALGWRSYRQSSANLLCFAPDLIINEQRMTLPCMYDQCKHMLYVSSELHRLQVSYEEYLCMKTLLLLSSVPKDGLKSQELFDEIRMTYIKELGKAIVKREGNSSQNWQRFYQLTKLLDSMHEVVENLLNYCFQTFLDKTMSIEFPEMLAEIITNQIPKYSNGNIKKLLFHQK
The experiment can be described thus: Glucocorticoid Receptor Binding Assay (Glucocorticoid Receptor Competitor Assay far red kit, fluorescence polarization). The note with it: competition with fluorescent GR ligand Fluormone GS Far Red, 3 hours at 22° C., pH 7.4; Ki calculated from IC50 by Cheng-Prusoff. The procedure, abridged: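 Compounds in serial dilution (from intermediate 4.2% DMSO stock) displace Fluormone GS Far Red from full-length human recombinant GR with stabilizing peptide, pH 7.4, incubated 3 hours at 22° C dark. Polarized fluorescence (610–660 nm) gives IC50 via sigmoidal fit, converted to Ki by Cheng-Prusoff.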

As for `C[C@H](c1ccc(Oc2c(C(=O)O)ccnc2Cl)cc1Cl)[C@@](O)(c1ccc2c(c1)n(C)c(=O)n2C)C(F)(F)F` (stereo in doubt) [Example 113, 2-Chloro-3-{3-chloro-4-[2-(1,3-dimethyl-2-oxo-2,3-dihydro-1H-benzoimidazol-5-yl)-3,3,3-trifluoro-2-hydroxy-1-methyl-propyl]-phenoxy}-isonicotinic acid], the Ki was 6.2 nM.
As to `C[C@@H](c1ccc(Oc2ccc(C(=O)O)c(C(F)(F)F)n2)cc1Cl)[C@](O)(c1ccc2c(c1)n(C)c(=O)n2C)C(F)(F)F` (stereo in doubt) [Example 115, 6-{3-Chloro-4-[2-(1,3-dimethyl-2-oxo-2,3-dihydro-1H-benzoimidazol-5-yl)-3,3,3-trifluoro-2-hydroxy-1-methyl-propyl]-phenoxy}-2-trifluoromethyl-nicotinic acid], the Ki is 1.1 nM.
Under `COC(=O)c1ccc(-c2ccc([C@@H](C)[C@@](O)(c3ccc4oc(=O)n(C)c4c3)C(F)(F)F)c(Cl)c2)nc1` (stereo in doubt) [Example 127, 6-{3-Chloro-4-[3,3,3-trifluoro-2-hydroxy-1-methyl-2-(3-methyl-2-oxo-2,3-dihydro-benzooxazol-5-yl)-propyl]-phenyl}-nicotinic acid methyl ester] stands 0.7 nM; under `C[C@H](c1ccc(-c2ccc(OCC(=O)O)cc2)cc1Cl)[C@@](O)(c1ccc2oc(=O)n(C)c2c1)C(F)(F)F` (stereo in doubt) [Example 130, {3′-Chloro-4′-[3,3,3-trifluoro-2-hydroxy-1-methyl-2-(3-methyl-2-oxo-2,3-dihydro-benzooxazol-5-yl)-propyl]-biphenyl-4-yloxy}-acetic acid], 0.5 nM.
`COc1cc(-c2ccc([C@@H](C)[C@@](O)(c3ccc4oc(=O)n(C)c4c3)C(F)(F)F)c(Cl)c2)ccc1C(=O)O` (stereo in doubt) [Example 132, 3′-Chloro-3-methoxy-4′-[3,3,3-trifluoro-2-hydroxy-1-methyl-2-(3-methyl-2-oxo-2,3-dihydro-benzooxazol-5-yl)-propyl]-biphenyl-4-carboxylic acid]: the Ki was 3 nM.
`C[C@@H](c1ccc(-c2ccc(C(=O)O)c(F)c2)cc1Cl)[C@](O)(c1cc2c(cc1F)OCC(=O)N2C)C(F)(F)F` (stereo in doubt) [Example 137, 3′-Chloro-3-fluoro-4′-[3,3,3-trifluoro-2-(7-fluoro-4-methyl-3-oxo-3,4-dihydro-2H-benzo[1,4]oxazin-6-yl)-2-hydroxy-1-methyl-propyl]-biphenyl-4-carboxylic acid]: the Ki was 20 nM.
The figure for `C[C@@H](c1ccc(Oc2ccc(C(=O)O)c(Cl)c2)cc1Cl)[C@](O)(c1cc2c(cc1F)OCC(=O)N2C)C(F)(F)F` (stereo in doubt) [Example 139, 2-Chloro-4-{3-chloro-4-[3,3,3-trifluoro-2-(7-fluoro-4-methyl-3-oxo-3,4-dihydro-2H-benzo[1,4]oxazin-6-yl)-2-hydroxy-1-methyl-propyl]-phenoxy}-benzoic acid] is 2.7 nM.
For `C[C@H](c1ccc(Oc2ccc(C(=O)O)c(Cl)c2)cc1Cl)[C@@](O)(c1ccc2[nH]c(=O)cc(C(F)(F)F)c2c1)C(F)(F)F` (stereo in doubt) [Example 140, 2-Chloro-4-{3-chloro-4-[3,3,3-trifluoro-2-hydroxy-1-methyl-2-(2-oxo-4-trifluoromethyl-1,2-dihydro-quinolin-6-yl)-propyl]-phenoxy}-benzoic acid], the Ki was 22 nM.
Turning to `Cc1cc([C@@](O)([C@@H](C)c2ccc(Oc3ccc(C(=O)O)c(F)c3)cc2Cl)C(F)(F)F)cc(C)c1C#N` (stereo in doubt) [Example 142, 4-{3-Chloro-4-[2-(4-cyano-3,5-dimethyl-phenyl)-3,3,3-trifluoro-2-hydroxy-1-methyl-propyl]-phenoxy}-2-fluoro-benzoic acid], the Ki was 2.1 nM.
As to `COC(=O)c1ccc(Oc2ccc([C@H](C)[C@](O)(c3cc(C)c(C#N)c(C)c3)C(F)(F)F)c(Cl)c2)cc1Cl` (stereo in doubt) [Example 143, 2-Chloro-4-{3-chloro-4-[2-(4-cyano-3,5-dimethyl-phenyl)-3,3,3-trifluoro-2-hydroxy-1-methyl-propyl]-phenoxy}-benzoic acid methyl ester], the Ki was 1.7 nM.
For the compound `COC(=O)c1cnc(Oc2ccc([C@H](C)[C@](O)(c3cc(C)c(C#N)c(C)c3)C(F)(F)F)c(Cl)c2)cc1C(F)(F)F` (stereo in doubt) [Example 145, 6-{3-Chloro-4-[2-(4-cyano-3,5-dimethyl-phenyl)-3,3,3-trifluoro-2-hydroxy-1-methyl-propyl]phenoxy}-4-trifluoromethyl-nicotinic acid methyl ester], the Ki was 3.1 nM.
`Cc1cc([C@@](O)([C@@H](C)c2ccc(Oc3cc(C(F)(F)F)c(C(=O)O)cn3)cc2Cl)C(F)(F)F)cc(C)c1C#N` (stereo in doubt) [Example 146, 6-{3-Chloro-4-[2-(4-cyano-3,5-dimethyl-phenyl)-3,3,3-trifluoro-2-hydroxy-1-methyl-propyl]-phenoxy}-4-trifluoromethyl-nicotinic acid]: the Ki was 1.4 nM.
`COC(=O)c1ccc(Oc2ccc([C@H](C)[C@](O)(c3cc(C)c(C#N)c(C)c3)C(F)(F)F)c(Cl)c2)nc1` (stereo in doubt) [Example 147, 6-{3-Chloro-4-[2-(4-cyano-3,5-dimethyl-phenyl)-3,3,3-trifluoro-2-hydroxy-1-methyl-propyl]-phenoxy}-nicotinic acid methyl ester]: the Ki was 2.8 nM.
For the compound `Cc1cc([C@@](O)([C@@H](C)c2ccc(Oc3ccc(C(=O)O)cn3)cc2Cl)C(F)(F)F)cc(C)c1C#N` (stereo in doubt) [Example 148, 6-{3-Chloro-4-[2-(4-cyano-3,5-dimethyl-phenyl)-3,3,3-trifluoro-2-hydroxy-1-methyl-propyl]-phenoxy}-nicotinic acid], the inhibitory constant (Ki) was 1.6 nM.
With `COC(=O)c1cnc(Oc2ccc([C@H](C)[C@](O)(c3cc(C)c(C#N)c(C)c3)C(F)(F)F)c(Cl)c2)c(Cl)c1` (stereo in doubt) [Example 149, 5-Chloro-6-{3-chloro-4-[2-(4-cyano-3,5-dimethyl-phenyl)-3,3,3-trifluoro-2-hydroxy-1-methyl-propyl]-phenoxy}-nicotinic acid methyl ester], the Ki was 1.7 nM.
Under `Cc1cc([C@@](O)([C@@H](C)c2ccc(Oc3ncc(C(=O)O)cc3Cl)cc2Cl)C(F)(F)F)cc(C)c1C#N` (stereo in doubt) [Example 150, 5-Chloro-6-{3-chloro-4-[2-(4-cyano-3,5-dimethyl-phenyl)-3,3,3-trifluoro-2-hydroxy-1-methyl-propyl]-phenoxy}-nicotinic acid] stands 1.3 nM.
With `C[C@H](c1ccc(-c2ccc(F)c(C(=O)O)c2)cc1Cl)[C@@](O)(c1ccc(C#N)cc1)C(F)(F)F` (stereo in doubt) [Example 151, 3′-Chloro-4′-[2-(4-cyano-phenyl)-3,3,3-trifluoro-2-hydroxy-1-methyl-propyl]-4-fluoro-biphenyl-3-carboxylic acid], the Ki is 18.5 nM.
In the case of `C[C@H](c1ccc(-c2ccc(F)c(C(=O)O)c2)cc1Cl)[C@@](O)(c1cccc(C#N)c1)C(F)(F)F` (stereo in doubt) [Example 154, 3′-Chloro-4′-[2-(3-cyano-phenyl)-3,3,3-trifluoro-2-hydroxy-1-methyl-propyl]-4-fluoro-biphenyl-3-carboxylic acid], the Ki was 33.7 nM.
On to `C[C@H](c1ccc(Oc2ccc(C(=O)O)cn2)cc1Cl)[C@@](O)(c1ccc(C#N)cc1)C(F)(F)F` (stereo in doubt) [Example 157, 6-{3-Chloro-4-[2-(4-cyano-phenyl)-3,3,3-trifluoro-2-hydroxy-1-methyl-propyl]-phenoxy}-nicotinic acid], for which the Ki is 19.8 nM.
`C[C@H](c1ccc(-c2ccc(C(=O)O)c(F)c2)cc1Cl)[C@@](O)(c1ccc2c(c1)OCC(=O)N2C)C(F)(F)F` (stereo in doubt) [Example 164, 3′-Chloro-3-fluoro-4′-[3,3,3-trifluoro-2-hydroxy-1-methyl-2-(4-methyl-3-oxo-3,4-dihydro-2H-benzo[1,4]oxazin-7-yl)-propyl]-biphenyl-4-carboxylic acid]: the Ki was 7.5 nM.
`C[C@H](c1ccc(Oc2ncc(C(=O)O)cc2Cl)cc1Cl)[C@@](O)(c1ccc2c(c1)OCC(=O)N2C)C(F)(F)F` (stereo in doubt) [Example 165, 5-Chloro-6-{3-chloro-4-[3,3,3-trifluoro-2-hydroxy-1-methyl-2-(4-methyl-3-oxo-3,4-dihydro-2H-benzo[1,4]oxazin-7-yl)-propyl]-phenoxy}-nicotinic acid]: the Ki was 0.9 nM.
